Results published in patent US20090264375A1, “INTRAOCULAR IRRIGATING SOLUTIONS AND METHODS FOR TREATING CORNEAL EDEMA” (ALCON RESEARCH, LTD., priority 2007, published 2009).

Assay: GSSG content after autoclaving at F0=8
Format: physicochemical
Conditions: 0.4% histidine in reconstituted BSS PLUS, autoclaved
Excerpt: The composition of reconstituted BSS PLUS® Sterile Intraocular Irrigating Solution is shown below in Table 1. The reconstituted product was used as a control solution. A sample of the reconstituted product was then spiked with 0.4% histidine to form the experimental solution. The control solution and the experimental solution were then each divided into two replicates each. The pH of one control and one experimental replicate was then adjusted to pH 6.8 and the pH of the other replicate was adjusted to pH 7.4. Both sets of the solutions were then autoclaved at F0=8. After autoclaving, GSSG contents in all the solutions were determined and the results are tabulated in Table 2 as percent GSSG remaining of the label claim in BSS PLUS® Sterile Intraocular Irrigating Solution.
All of the above solutions were autoclaved in the same cycle. However, in this particular experiment, the sterilizer used was not capable of finely regulating F0 and thus significant degradation of GSSG occurred.

- Effect on GSSG stability in solution: stabilizes GSSG in solution
SMILES: N[C@@H](Cc1c[nH]cn1)C(=O)O [histidine]
